Test results: ChEMBL document CHEMBL6182925 (J Med Chem, 2025)
≈ marks a conversion by molar mass, not a printed value. Calls of active or inactive are those of the source. The rule behind the calls is not given here.

Legend:
[1] = species on record: Homo sapiens; experiment: Inhibition of c-MET D1228 mutant (unknown origin) at 100 nM in presence of ATP by HotSpot Kinome Selectivity analysis
[2] = Antitumor activity against human LU2503 cells xenografted in athymic BALB/c nude mouse at 6 mg/kg, po bid treated for 14 days relative to control; format: functional; settings: LU2503, 336 h, time 14 day, read-out: TGI
[3] = target: Cytochrome P450 3A4 (Homo sapiens, UniProt P08684); experiment: Inhibition of CYP3A4 (unknown origin); format: ADME; settings: human
Sequence of Cytochrome P450 3A4 (P08684 whole entry): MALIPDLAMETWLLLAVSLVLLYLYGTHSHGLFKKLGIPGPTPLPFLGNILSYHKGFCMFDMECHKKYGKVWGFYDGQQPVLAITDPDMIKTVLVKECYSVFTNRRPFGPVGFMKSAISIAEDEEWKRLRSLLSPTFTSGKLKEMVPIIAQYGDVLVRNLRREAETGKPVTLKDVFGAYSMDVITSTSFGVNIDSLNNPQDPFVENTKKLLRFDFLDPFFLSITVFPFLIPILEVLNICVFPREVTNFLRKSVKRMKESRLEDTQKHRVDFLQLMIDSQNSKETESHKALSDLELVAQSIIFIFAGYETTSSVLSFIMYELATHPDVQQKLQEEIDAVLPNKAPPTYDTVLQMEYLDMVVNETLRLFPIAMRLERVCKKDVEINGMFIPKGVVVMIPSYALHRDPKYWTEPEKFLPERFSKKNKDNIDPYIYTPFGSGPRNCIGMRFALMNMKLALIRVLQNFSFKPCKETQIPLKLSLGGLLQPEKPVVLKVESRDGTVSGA

[4] = AUClast in Balb/c mouse at 10 mg/kg, po; format: ADME, organism-based; settings: in vivo
[5] = species on record: Homo sapiens; experiment: Inhibition of c-MET D1228X/Y1230X mutant (unknown origin) at 100 nM in presence of ATP by HotSpot Kinome Selectivity analysis
[6] = system: BaF3; experiment: cells; settings: Mus musculus, BaF3, 72 h
[7] = system: BaF3; experiment: cells; settings: Mus musculus, BaF3, 72 h; remark: listed apart in the source
[8] = AUClast in male Beagle dog at 10 mg/kg, po; format: ADME, organism-based, Canis lupus familiaris; settings: in vivo
[9] = system: BaF3; experiment: cells; settings: Mus musculus, BaF3, 72 h; remark: listed apart in the source
[10] = target: AhR (Homo sapiens, UniProt P35869); experiment: Induction of AhR (unknown origin) assessed as fold increase in activity at 1 uM relative to control; format: toxicity; settings: read-out: FC
Sequence of AhR (P35869 whole entry): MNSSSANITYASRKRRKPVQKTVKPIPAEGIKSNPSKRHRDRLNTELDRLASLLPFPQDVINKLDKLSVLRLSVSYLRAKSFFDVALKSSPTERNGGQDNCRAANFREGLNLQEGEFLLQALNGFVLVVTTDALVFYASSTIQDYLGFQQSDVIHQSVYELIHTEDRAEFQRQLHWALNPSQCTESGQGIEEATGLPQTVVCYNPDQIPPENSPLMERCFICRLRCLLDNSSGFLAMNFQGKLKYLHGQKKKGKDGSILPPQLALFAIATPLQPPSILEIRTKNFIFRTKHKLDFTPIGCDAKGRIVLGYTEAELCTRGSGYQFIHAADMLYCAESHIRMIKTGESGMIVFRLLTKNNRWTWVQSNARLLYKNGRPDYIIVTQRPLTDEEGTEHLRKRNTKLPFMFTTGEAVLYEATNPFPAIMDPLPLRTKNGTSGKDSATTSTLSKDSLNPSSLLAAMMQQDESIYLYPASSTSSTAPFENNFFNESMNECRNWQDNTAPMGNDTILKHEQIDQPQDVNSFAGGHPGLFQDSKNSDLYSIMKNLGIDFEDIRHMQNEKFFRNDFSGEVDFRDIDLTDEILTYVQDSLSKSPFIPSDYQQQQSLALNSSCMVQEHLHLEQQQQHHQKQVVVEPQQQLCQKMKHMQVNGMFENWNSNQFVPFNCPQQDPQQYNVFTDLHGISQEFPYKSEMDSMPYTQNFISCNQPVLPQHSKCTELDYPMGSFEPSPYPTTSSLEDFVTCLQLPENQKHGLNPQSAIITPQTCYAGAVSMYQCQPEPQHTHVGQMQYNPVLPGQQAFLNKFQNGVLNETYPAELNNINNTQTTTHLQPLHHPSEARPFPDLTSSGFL

[11] = system: EBC-1; experiment: Antitumor activity against human EBC-1 cells xenografted in athymic BALB/c nude mouse at 6 mg/kg, po bid treated for 21 days relative to control; format: functional; settings: EBC-1, 504 h, time 21 day, read-out: TGI
[12] = Antitumor activity against human LU2503 cells xenografted in athymic BALB/c nude mouse at 20 mg/kg, po bid treated for 14 days relative to control; format: functional; settings: LU2503, 336 h, time 14 day, read-out: TGI
[13] = system: BaF3; experiment: cells; settings: Mus musculus, BaF3, 72 h; remark: listed apart in the source
[14] = Half life in female Balb/c mouse at 1 mg/kg, iv; format: ADME, organism-based; settings: in vivo
[15] = species on record: Homo sapiens; experiment: Inhibition of c-MET Y1230 mutant (unknown origin) at 100 nM in presence of ATP by HotSpot Kinome Selectivity analysis
[16] = system: EBC-1; experiment: Antitumor activity against human EBC-1 cells xenografted in athymic BALB/c nude mouse at 2 mg/kg, po bid treated for 21 days relative to control; format: functional; settings: EBC-1, 504 h, time 21 day, read-out: TGI
[17] = Toxicity in athymic BALB/c nude mouse xenografted with human EBC-1 cells assessed as body weight loss at 2 to 60 mg/kg, po bid treated for 10 to 21 days; format: organism-based; settings: in vivo, dose lower 2 mg/kg, time lower 10 day, dose upper 60 mg/kg, time upper 21 day
[18] = Half life in male Sprague-Dawley rat at 3 mg/kg, iv; format: ADME, organism-based; settings: in vivo
[19] = species on record: Homo sapiens; experiment: Inhibition of sodium channel site 2 (unknown origin) at 10 uM by CEREP analysis relative to control
[20] = target: 5-hydroxytryptamine receptor 1B (Homo sapiens) (UniProt P28222); experiment: Inhibition of 5-HT1B receptor (unknown origin) at 10 uM by CEREP analysis relative to control
Sequence of 5-hydroxytryptamine receptor 1B (Homo sapiens) (P28222 whole entry): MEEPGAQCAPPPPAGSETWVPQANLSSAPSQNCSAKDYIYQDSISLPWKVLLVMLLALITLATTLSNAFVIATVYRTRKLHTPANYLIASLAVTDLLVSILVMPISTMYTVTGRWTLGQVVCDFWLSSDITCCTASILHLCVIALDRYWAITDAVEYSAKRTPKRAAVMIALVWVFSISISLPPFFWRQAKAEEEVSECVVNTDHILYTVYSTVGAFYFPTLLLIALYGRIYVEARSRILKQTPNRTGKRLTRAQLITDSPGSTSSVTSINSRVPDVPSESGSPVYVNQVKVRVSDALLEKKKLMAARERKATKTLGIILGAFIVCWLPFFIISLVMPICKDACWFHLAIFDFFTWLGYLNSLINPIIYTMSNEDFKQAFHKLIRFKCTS

[21] = species on record: Homo sapiens; experiment: Inhibition of c-MET L1195X/F1200X mutant (unknown origin) at 100 nM in presence of ATP by HotSpot Kinome Selectivity analysis
[22] = target: Hepatocyte growth factor receptor (Homo sapiens, UniProt P08581); experiment: Inhibition of N-terminal GST-tagged wild-type human c-MET (956 to 1390 residues) extracted from baculovirus infected Sf21 cells using 5-FAM-KKKKEEIYFFF-CONH2 as substrate preincubated for 30 mins followed by ATP addition measured after 60 mins by fluorescence-based microfluidic mobility shift assay
Sequence of Hepatocyte growth factor receptor (P08581 whole entry, the tested form may be a part): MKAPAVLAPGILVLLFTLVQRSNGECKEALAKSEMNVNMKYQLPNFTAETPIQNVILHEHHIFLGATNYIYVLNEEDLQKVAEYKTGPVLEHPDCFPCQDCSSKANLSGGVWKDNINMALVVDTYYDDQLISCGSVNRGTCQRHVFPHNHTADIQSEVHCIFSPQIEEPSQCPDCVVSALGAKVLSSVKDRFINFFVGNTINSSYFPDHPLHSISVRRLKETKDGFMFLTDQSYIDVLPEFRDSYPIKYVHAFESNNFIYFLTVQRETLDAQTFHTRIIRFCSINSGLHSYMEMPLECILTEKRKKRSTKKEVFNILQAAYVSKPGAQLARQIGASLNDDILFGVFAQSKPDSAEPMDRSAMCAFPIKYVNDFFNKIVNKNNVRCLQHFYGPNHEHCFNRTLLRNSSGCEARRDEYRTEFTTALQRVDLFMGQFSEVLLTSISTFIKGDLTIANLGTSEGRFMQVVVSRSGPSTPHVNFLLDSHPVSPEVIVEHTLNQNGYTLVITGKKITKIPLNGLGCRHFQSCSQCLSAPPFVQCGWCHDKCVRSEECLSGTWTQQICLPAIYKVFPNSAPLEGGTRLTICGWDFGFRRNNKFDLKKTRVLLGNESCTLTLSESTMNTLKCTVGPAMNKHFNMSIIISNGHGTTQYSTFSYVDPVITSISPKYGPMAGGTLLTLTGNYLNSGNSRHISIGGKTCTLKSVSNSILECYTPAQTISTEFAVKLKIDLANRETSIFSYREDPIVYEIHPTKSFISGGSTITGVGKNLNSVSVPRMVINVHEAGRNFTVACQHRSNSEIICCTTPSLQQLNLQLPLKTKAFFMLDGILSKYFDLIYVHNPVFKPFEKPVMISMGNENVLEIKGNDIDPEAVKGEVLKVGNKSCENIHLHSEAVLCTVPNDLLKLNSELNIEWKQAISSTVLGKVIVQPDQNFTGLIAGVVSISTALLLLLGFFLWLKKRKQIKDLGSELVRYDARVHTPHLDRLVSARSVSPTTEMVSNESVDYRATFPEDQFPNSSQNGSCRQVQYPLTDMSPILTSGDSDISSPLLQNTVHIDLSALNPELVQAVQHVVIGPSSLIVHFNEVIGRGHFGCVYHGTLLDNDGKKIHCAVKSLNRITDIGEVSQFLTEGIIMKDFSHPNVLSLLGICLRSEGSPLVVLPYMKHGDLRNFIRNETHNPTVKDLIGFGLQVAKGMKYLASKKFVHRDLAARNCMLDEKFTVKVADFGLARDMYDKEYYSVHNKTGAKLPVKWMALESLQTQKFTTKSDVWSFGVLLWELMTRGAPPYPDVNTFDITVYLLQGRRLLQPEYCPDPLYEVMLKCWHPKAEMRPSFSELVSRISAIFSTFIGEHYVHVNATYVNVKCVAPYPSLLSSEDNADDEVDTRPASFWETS

[23] = Antitumor activity against human LU2503 cells xenografted in athymic BALB/c nude mouse at 2 mg/kg, po bid treated for 14 days relative to control; format: functional; settings: LU2503, 336 h, time 14 day, read-out: TGI
[24] = Toxicity in athymic BALB/c nude mouse xenografted with human LU2503 cells assessed as body weight loss at 2 to 60 mg/kg, po bid treated for 10 to 21 days; format: organism-based; settings: in vivo, dose lower 2 mg/kg, time lower 10 day, dose upper 60 mg/kg, time upper 21 day
[25] = AUCfree in dog measured for 28 days; format: ADME, Canis lupus familiaris; settings: in vivo, 672 h, time 28 day
[26] = system: BaF3; experiment: cells; settings: Mus musculus, BaF3, 72 h; remark: listed apart in the source
[27] = Toxicity in athymic BALB/c nude mouse allografted with mouse BaF3 cells harboring TPR-D1228N mutant assessed as body weight loss at 2 to 60 mg/kg, po bid treated for 10 to 21 days; format: organism-based; settings: in vivo, dose lower 2 mg/kg, time lower 10 day, dose upper 60 mg/kg, time upper 21 day
[28] = target: hERG (Homo sapiens, UniProt Q12809); experiment: Inhibition of hERG at 10 uM by CEREP analysis relative to control; format: toxicity
[29] = Toxicity in rat assessed as drug tolerance measured for 28 days; settings: in vivo, 672 h, time 28 day
[30] = Oral bioavailability in Balb/c mouse at 10 mg/kg; format: ADME, organism-based; settings: in vivo
[31] = system: Mus musculus; experiment: In vivo inhibition of MET phosphorylation in human EBC-1 cells xenografted in athymic BALB/c nude mouse at 20 to 60 mg/kg, po measured after 12 hrs post-dose; format: functional, organism-based; settings: dose 20-60 mg/kg
[32] = Oral bioavailability in male Beagle dog at 10 mg/kg; format: ADME, organism-based, Canis lupus familiaris; settings: in vivo
[33] = Clearance in male Sprague-Dawley rat at 3 mg/kg, iv; format: ADME, organism-based; settings: in vivo
[34] = Kinetic solubility of compound at pH 4.5; format: physicochemical; settings: buffer, read-out: Kinetic_solubility
[35] = system: BaF3; experiment: cells; settings: Mus musculus, BaF3, 72 h; remark: listed apart in the source
[36] = Clearance in female Balb/c mouse at 1 mg/kg, iv; format: ADME, organism-based; settings: in vivo
[37] = cells; settings: Mus musculus, BaF3/TRP-Met, 72 h
[38] = system: Hepatocyte growth factor receptor (Homo sapiens), P08581 [Y1235D]; experiment: Inhibition of c-MET Y1235D mutant (unknown origin) at 100 nM in presence of ATP by HotSpot Kinome Selectivity analysis
Sequence of Hepatocyte growth factor receptor (Homo sapiens), P08581 [Y1235D] (P08581 whole entry Y1235D): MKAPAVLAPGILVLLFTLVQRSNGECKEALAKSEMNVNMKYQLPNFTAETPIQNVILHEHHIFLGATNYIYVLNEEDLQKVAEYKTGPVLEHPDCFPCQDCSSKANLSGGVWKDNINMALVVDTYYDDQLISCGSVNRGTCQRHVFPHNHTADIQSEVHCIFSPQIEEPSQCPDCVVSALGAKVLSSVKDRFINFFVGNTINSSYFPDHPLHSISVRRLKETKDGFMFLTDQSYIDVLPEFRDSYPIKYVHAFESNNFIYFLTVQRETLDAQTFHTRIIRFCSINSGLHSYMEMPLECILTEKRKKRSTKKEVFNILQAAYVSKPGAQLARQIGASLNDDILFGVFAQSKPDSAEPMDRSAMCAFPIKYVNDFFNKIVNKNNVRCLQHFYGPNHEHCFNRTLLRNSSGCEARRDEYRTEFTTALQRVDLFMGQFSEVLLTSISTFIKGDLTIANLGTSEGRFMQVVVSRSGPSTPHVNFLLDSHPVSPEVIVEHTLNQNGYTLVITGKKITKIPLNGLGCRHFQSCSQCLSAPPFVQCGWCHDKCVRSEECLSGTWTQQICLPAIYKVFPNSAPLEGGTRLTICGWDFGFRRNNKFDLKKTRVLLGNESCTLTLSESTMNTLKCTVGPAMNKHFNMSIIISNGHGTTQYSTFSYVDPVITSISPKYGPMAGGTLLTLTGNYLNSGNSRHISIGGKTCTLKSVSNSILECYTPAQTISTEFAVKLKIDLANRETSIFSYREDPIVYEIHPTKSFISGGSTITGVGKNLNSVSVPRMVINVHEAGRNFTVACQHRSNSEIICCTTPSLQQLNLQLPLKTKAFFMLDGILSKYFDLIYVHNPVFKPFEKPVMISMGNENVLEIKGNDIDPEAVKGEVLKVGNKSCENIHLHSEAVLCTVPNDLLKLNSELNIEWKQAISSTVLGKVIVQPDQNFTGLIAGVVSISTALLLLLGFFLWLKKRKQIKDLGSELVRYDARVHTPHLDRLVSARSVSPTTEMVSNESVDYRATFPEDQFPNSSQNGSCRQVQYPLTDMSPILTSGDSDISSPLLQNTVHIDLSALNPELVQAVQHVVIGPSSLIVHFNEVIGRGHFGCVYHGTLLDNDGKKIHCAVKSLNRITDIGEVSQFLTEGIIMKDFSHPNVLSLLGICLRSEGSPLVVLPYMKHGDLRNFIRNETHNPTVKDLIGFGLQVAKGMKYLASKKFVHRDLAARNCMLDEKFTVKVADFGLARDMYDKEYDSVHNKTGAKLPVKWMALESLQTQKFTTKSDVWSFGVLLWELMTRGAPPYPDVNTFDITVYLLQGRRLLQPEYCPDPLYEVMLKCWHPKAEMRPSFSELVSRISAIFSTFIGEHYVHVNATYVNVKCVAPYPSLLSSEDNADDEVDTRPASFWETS

[39] = system: BaF3; experiment: cells; settings: Mus musculus, BaF3, 72 h; remark: listed apart in the source
[40] = system: BaF3; experiment: Antitumor activity against mouse BaF3 cells harboring TPR-D1228N mutant cells allografted in athymic BALB/c nude mouse at 6 mg/kg, po bid treated for 10 days relative to control; format: functional; settings: BaF3, 240 h, time 10 day, read-out: TGI
[41] = system: BaF3; experiment: cells; settings: Mus musculus, BaF3, 72 h; remark: listed apart in the source
[42] = AUClast in male Sprague-Dawley rat at 10 mg/kg, po; format: ADME, organism-based; settings: in vivo
[43] = system: EBC-1; experiment: Antitumor activity against human EBC-1 cells xenografted in athymic BALB/c nude mouse at 20 mg/kg, po bid treated for 21 days relative to control; format: functional; settings: EBC-1, 504 h, time 21 day, read-out: TGI
[44] = target: 5-hydroxytryptamine receptor 2B (Homo sapiens) (UniProt P41595); experiment: Inhibition of 5-HT2B receptor (unknown origin) at 10 uM by CEREP analysis relative to control
Sequence of 5-hydroxytryptamine receptor 2B (Homo sapiens) (P41595 whole entry): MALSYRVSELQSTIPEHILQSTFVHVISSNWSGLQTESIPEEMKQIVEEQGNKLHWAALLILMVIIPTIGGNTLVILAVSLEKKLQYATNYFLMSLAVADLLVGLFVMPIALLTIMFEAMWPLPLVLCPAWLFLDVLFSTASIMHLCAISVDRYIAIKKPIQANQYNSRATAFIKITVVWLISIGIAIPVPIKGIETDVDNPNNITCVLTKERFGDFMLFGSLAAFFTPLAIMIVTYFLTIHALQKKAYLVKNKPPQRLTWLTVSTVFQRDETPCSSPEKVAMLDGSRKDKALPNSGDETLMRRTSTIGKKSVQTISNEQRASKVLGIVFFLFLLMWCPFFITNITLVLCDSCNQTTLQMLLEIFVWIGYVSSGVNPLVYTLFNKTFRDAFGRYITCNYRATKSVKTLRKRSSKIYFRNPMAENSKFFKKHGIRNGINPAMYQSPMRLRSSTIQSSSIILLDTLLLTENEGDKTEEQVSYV

[45] = Half life in male Beagle dog at 1 mg/kg, iv; format: ADME, organism-based, Canis lupus familiaris; settings: in vivo
[46] = system: BaF3; experiment: cells; settings: Mus musculus, BaF3, 72 h; remark: listed apart in the source
[47] = Clearance in male Beagle dog at 1 mg/kg, iv; format: ADME, organism-based, Canis lupus familiaris; settings: in vivo

In the case of `COc1cc2nccc(Oc3c(F)cc(NC(=O)c4cnccc4OC)cc3F)c2cc1O[C@@H](C)CO`, the inhibition [1] is reported as 0%, the inhibition in vivo at 6 mg/kg [2] is reported as 77% and the “inhibition (INH)” value [3] is reported as “Not_active”. The AUC(0-t) [4] was 13500 ng·h/mL, the inhibition [5] was 49% and the EC50 [6] was 18 nM. The EC50 [7] was 2.5 nM, the AUC(0-t) [8] was 26400 ng·h/mL and the EC50 [9] was 19 nM. The fold induction at 1 µM [10] was under 1.5, the inhibition in vivo at 6 mg/kg [11] was 52% and the inhibition in vivo at 20 mg/kg [12] was 110%. The EC50 [13] was 37 nM, the half-life [14] was 1.8 h and the inhibition [15] was 0%. The inhibition in vivo at 2 mg/kg [16] was 25%, the Activity [17] was “Non-toxic” and the half-life [18] was 4.9 h. The inhibition [19] was 40%, the inhibition [20] was -3% and the inhibition [21] was -4%. For the same molecule, the IC50 [22] was 0.2 nM, the inhibition in vivo at 2 mg/kg [23] was 43% and the Activity [24] was “Non-toxic”. For the same molecule, the fAUC [25] was 5100 ng·h/mL, the EC50 [26] was 3.2 nM and the Activity [27] was “Non-toxic”. For the same molecule, the inhibition at 10 µM [28] was 18%, the Activity [29] was “Non-toxic” and the bioavailability [30] was 100%. The inhibition [31] was “Active”, the bioavailability [32] was 56% and the clearance [33] was 11.2 mL/min/kg. It also gave a solubility kinetic [34] of 145 µM (≈ 74.2 µg/mL), an EC50 [35] of 13 nM and a clearance [36] of 14.3 mL/min/kg. It also gave an EC50 [37] of 11 nM, an inhibition [38] of 85% and an EC50 [39] of 9.1 nM. The inhibition in vivo at 6 mg/kg [40] was 44%, the EC50 [41] was 7.7 nM and the AUC(0-t) [42] was 18600 ng·h/mL. It also gave an inhibition in vivo at 20 mg/kg [43] of 88%, an inhibition [44] of 48% and a half-life [45] of 6.3 h. For the same molecule, the EC50 [46] was 8.6 nM and the clearance [47] was 3.5 mL/min/kg.
